In article PMC10145651, “Modulation of the 5-Lipoxygenase Pathway by Chalcogen-Containing Inhibitors of Leukotriene A4 Hydrolase” (International Journal of Molecular Sciences, 2023):
Where two headings read alike, the source gives them in different places.

Key:
LTA4H [1] = target: T1, LTA4H (Homo sapiens, UniProt P09960); assay: Peptidase assay of LTA4H with pNa and AMC conjugates; assay type: biochemical; parameters: made in house; host or cells: Escherichia coli JM101; settings: for AC50: activation; for Specific activity of LTA4H with L-Ala-pNa in the presence of inhibitor: substrate L-Ala-pNa; for Specific activity of LTA4H with L-Ala-pNa in the presence of inhibitor / Specific activity of LTA4H with L-Arg-AMC in the presence of inhibitor / Specific activity of LTA4H with L-Arg-pNa in the presence of inhibitor / Specific activity of LTA4H with L-Leu-pNa in the presence of inhibitor / Specific activity of LTA4H with L-Pro-AMC in the presence of inhibitor / Specific activity of LTA4H with L-Pro-pNa in the presence of inhibitor / Specific activity of LTA4H with L-Val-pNa in the presence of inhibitor: mean ± SEM, n = 3; for Specific activity of LTA4H with L-Arg-AMC in the presence of inhibitor: substrate L-Arg-AMC; for Specific activity of LTA4H with L-Arg-pNa in the presence of inhibitor: substrate L-Arg-pNa; for Specific activity of LTA4H with L-Leu-pNa in the presence of inhibitor: substrate L-Leu-pNa; for Specific activity of LTA4H with L-Pro-AMC in the presence of inhibitor: substrate L-Pro-AMC; for Specific activity of LTA4H with L-Pro-pNa in the presence of inhibitor: substrate L-Pro-pNa; for Specific activity of LTA4H with L-Val-pNa in the presence of inhibitor: substrate L-Val-pNa; for fold change of specific activity with L-Arg-AMC / fold change of specific activity with L-Arg-pNa / fold change of specific activity with L-Pro-AMC: vs LTA4H without inhibitor (decrease); for fold change of specific activity with L-Ala-pNa / fold change of specific activity with L-Leu-pNa / fold change of specific activity with L-Val-pNa: vs LTA4H without inhibitor (increase)
T1 sequence (P09960 1-611): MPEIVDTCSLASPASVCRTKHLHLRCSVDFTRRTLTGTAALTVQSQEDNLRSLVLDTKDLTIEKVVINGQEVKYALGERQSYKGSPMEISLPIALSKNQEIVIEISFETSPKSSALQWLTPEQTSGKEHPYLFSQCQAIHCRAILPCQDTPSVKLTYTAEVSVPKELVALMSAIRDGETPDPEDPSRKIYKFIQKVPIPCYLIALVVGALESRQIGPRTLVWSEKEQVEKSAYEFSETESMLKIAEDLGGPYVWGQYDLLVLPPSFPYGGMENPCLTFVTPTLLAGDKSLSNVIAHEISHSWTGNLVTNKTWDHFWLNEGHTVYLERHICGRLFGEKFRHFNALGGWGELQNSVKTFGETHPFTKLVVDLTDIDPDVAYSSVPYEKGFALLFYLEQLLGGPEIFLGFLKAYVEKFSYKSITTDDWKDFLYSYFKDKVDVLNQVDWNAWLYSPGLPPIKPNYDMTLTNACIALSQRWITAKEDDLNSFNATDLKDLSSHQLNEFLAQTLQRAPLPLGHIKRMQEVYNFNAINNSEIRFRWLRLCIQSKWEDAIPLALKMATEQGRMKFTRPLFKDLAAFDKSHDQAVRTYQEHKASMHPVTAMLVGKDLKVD
Procedure: In addition, the aminopeptidase assay was performed with p-nitroanilide (pNa) and 7-amido-4-methylcoumarin (AMC) conjugates containing different N-terminal amino acids. Incubations were carried out with 1 μg LTA4H and 1 mM pNa substrates or 5 µM AMC substrates in 400 μL 10 mM Tris-HCl pH 7.8 containing 100 mM KCl at room temperature for 30 min. The absorbance of released pNa was measured after every 5 min at 405 nm using a TECAN Infinite M200 plate reader. The measurements with AMC derivatives were carried out using a black polystyrene 96-well plate and the fluorescence of released AMC at 360 nm/460 nm (ex/em) was recorded. Specific activities were calculated based on the standard curves of free pNA and AMC (Figure S10). The activation (AC50) or inhibition constants (IC50) were determined using the non-linear regression approach in the GraphPad Prism 9 program.

LTA4H [2] = target: T1, LTA4H; parameters: made in house; host or cells: Escherichia coli JM101; method as in PMID 24591641; settings: previously demonstrated; cited from earlier work
LTA4H [3] = target: T1, LTA4H; assay: Aminopeptidase assay of LTA4H with the PGP substrate; assay type: biochemical; parameters: made in house; host or cells: Escherichia coli JM101; settings: 800 μM PGP, 0–100 μM inhibitor
Procedure: The reaction was stopped by addition of 150 μL of acetic acid. To detect and quantify released N-terminal proline, incubations with 150 μL of ninhydrin solution (25 mg/mL) were carried out at 100 °C for 45 min. Samples were cooled down and purple-colored ninhydrin conjugates were extracted with 350 μL toluene and the upper phase was transferred to a polypropylene 96-well plate (Greiner Bio-One, Kremsmünster, Austria). All incubations were carried out in triplicates and absorbance was measured at 495 nm using a TECAN Infinite M200 plate reader. Specific peptidase activities were determined based on the standard curve of free L-proline (Figure S10).

[4] = 5 µM L-Arg-AMC, read-out: IC50, peptidase activity with L-Arg-AMC
[5] = 5 µM L-Pro-AMC, read-out: IC50, peptidase activity with L-Pro-AMC
[6] = 1 mM L-Arg-pNa, read-out: IC50, peptidase activity with L-Arg-pNa
[7] = 1 mM L-Lys-pNa, read-out: IC50, peptidase activity with L-Lys-pNa
[8] = 1 mM L-Ala-pNa, read-out: AC50, peptidase activity with L-Ala-pNa
[9] = 1 mM L-Leu-pNa, read-out: AC50, peptidase activity with L-Leu-pNa
[10] = 1 mM L-Val-pNa, read-out: AC50, peptidase activity with L-Val-pNa

IC50 (LTA4H [1]; [4])	IC50 (LTA4H [1]; [5])	IC50 (LTA4H [1]; [6])	IC50 (LTA4H [1]; [7])	AC50 (LTA4H [1]; [8])	AC50 (LTA4H [1]; [9])	AC50 (LTA4H [1]; [10])	Specific activity of LTA4H with L-Ala-pNa in the presence of inhibitor (LTA4H [1])	Specific activity of LTA4H with L-Arg-AMC in the presence of inhibitor (LTA4H [1])	Specific activity of LTA4H with L-Arg-pNa in the presence of inhibitor (LTA4H [1])	Specific activity of LTA4H with L-Leu-pNa in the presence of inhibitor (LTA4H [1])	Specific activity of LTA4H with L-Pro-AMC in the presence of inhibitor (LTA4H [1])	Specific activity of LTA4H with L-Pro-pNa in the presence of inhibitor (LTA4H [1])	Specific activity of LTA4H with L-Val-pNa in the presence of inhibitor (LTA4H [1])	SMILES	effect on the cleavage of the PGP tripeptide by recombinant LTA4H (LTA4H [3])	fold change of specific activity with L-Arg-AMC (LTA4H [1]; in parentheses)	fold change of specific activity with L-Arg-pNa (LTA4H [1]; in parentheses)	fold change of specific activity with L-Pro-AMC (LTA4H [1]; in parentheses)	fold change of specific activity with L-Ala-pNa (LTA4H [1]; in parentheses)	fold change of specific activity with L-Leu-pNa (LTA4H [1]; in parentheses)	further results
330 ± 90 nM	300 ± 70 nM	360 ± 60 nM	1060 ± 240 nM	180 ± 40 nM	480 ± 50 nM	230 ± 20 nM	79.6 ± 7.6 µmol/µg/min	10.1 ± 0.1 µmol/µg/min	0.20 ± 0.03 µmol/µg/min	46.3 ± 1.7 µmol/µg/min	16.0 ± 0.2 µmol/µg/min	2.65 ± 0.12 µmol/µg/min	24.9 ± 0.8 µmol/µg/min	Nc1nc(-c2ccc(Cc3ccccc3)cc2)cs1 [ARM1, 4-(4-benzylphenyl) thiazol-2-amine, reference compound]							effect on PGP cleavage by LTA4H (LTA4H [2]): remains unaffected
440 ± 140 nM	310 ± 50 nM	460 ± 50 nM	890 ± 710 nM	280 ± 40 nM	560 ± 60 nM	210 ± 20 nM	93.0 ± 1.7 µmol/µg/min	9.9 ± 0.1 µmol/µg/min	0.2 ± 0.1 µmol/µg/min	46.9 ± 1.7 µmol/µg/min	15.8 ± 0.2 µmol/µg/min	2.3 ± 0.2 µmol/µg/min	24.4 ± 0.4 µmol/µg/min	Nc1nc(-c2ccc(Cc3ccccc3)cc2)co1 [TTO, 4-(4-benzylphenyl) oxazol-2-amine]	did not influence	3 x	89 x	2 x	9 x	12 x	fold change of specific activity with L-Pro-pNa (LTA4H [1]; in parentheses, vs LTA4H without inhibitor): 1.3 x; fold change of specific activity with L-Val-pNa (LTA4H [1]; in parentheses): 30 x

SMILES	IC50 (LTA4H [1]; [4])	IC50 (LTA4H [1]; [5])	IC50 (LTA4H [1]; [6])	IC50 (LTA4H [1]; [7])	AC50 (LTA4H [1]; [8])	AC50 (LTA4H [1]; [9])	AC50 (LTA4H [1]; [10])	Specific activity of LTA4H with L-Ala-pNa in the presence of inhibitor (LTA4H [1])	Specific activity of LTA4H with L-Arg-AMC in the presence of inhibitor (LTA4H [1])	Specific activity of LTA4H with L-Arg-pNa in the presence of inhibitor (LTA4H [1])	Specific activity of LTA4H with L-Leu-pNa in the presence of inhibitor (LTA4H [1])	Specific activity of LTA4H with L-Pro-AMC in the presence of inhibitor (LTA4H [1])	Specific activity of LTA4H with L-Pro-pNa in the presence of inhibitor (LTA4H [1])	Specific activity of LTA4H with L-Val-pNa in the presence of inhibitor (LTA4H [1])	effect on the cleavage of the PGP tripeptide by recombinant LTA4H (LTA4H [3])	fold change of specific activity with L-Arg-AMC (LTA4H [1]; in parentheses)	fold change of specific activity with L-Arg-pNa (LTA4H [1]; in parentheses)	fold change of specific activity with L-Pro-AMC (LTA4H [1]; in parentheses)	fold change of specific activity with L-Ala-pNa (LTA4H [1]; in parentheses)	fold change of specific activity with L-Leu-pNa (LTA4H [1]; in parentheses)	further results
Nc1nc(-c2ccc(Cc3ccccc3)cc2)c[se]1 [TTSe, 4-(4-benzylphenyl) selenazol-2-amine]								88.0 ± 4.6 µmol/µg/min	10.1 ± 0.1 µmol/µg/min	0.20 ± 0.07 µmol/µg/min	37.6 ± 1.1 µmol/µg/min	15.7 ± 0.2 µmol/µg/min	2.8 ± 0.1 µmol/µg/min	24.6 ± 0.5 µmol/µg/min	did not influence	3 x	94 x	2 x	9 x	10 x	AC50 (LTA4H [1]; AC50, peptidase activity with L-Ala-pNa, 1 mM L-Ala-pNa): 210 ± 30 nM; AC50 (LTA4H [1]; AC50, peptidase activity with L-Leu-pNa, 1 mM L-Leu-pNa): 520 ± 50 nM; AC50 (LTA4H [1]; AC50, peptidase activity with L-Val-pNa, 1 mM L-Val-pNa): 270 ± 30 nM; IC50 (LTA4H [1]; IC50, peptidase activity with L-Arg-AMC, 5 µM L-Arg-AMC): 380 ± 90 nM; IC50 (LTA4H [1]; IC50, peptidase activity with L-Arg-pNa, 1 mM L-Arg-pNa): 490 ± 100 nM; IC50 (LTA4H [1]; IC50, peptidase activity with L-Lys-pNa, 1 mM L-Lys-pNa): 1010 ± 360 nM; IC50 (LTA4H [1]; IC50, peptidase activity with L-Pro-AMC, 5 µM L-Pro-AMC): 250 ± 20 nM; fold change of specific activity with L-Val-pNa (LTA4H [1]; in parentheses): 30 x
